Source: patent US20110028710A1, “PROCESS FOR THE RECOVERY OF HCL FROM A DILUTE SOLUTION THEREOF AND EXTRACTANT COMPOSITION FOR USE THEREIN” (HCL CLEANTECH LTD., priority 2008, published 2011)

Columns and labels:
[1] = analogous water-soluble acids of the prior-art strong acids; cited from earlier work
[2] = pH of 1N NaCl solution after contact with the organic acid (indirect acid strength test); details: 1 mol acid at 0.2 molar or higher in organic solvent contacted with equivalent NaCl in 1N aqueous solution
Excerpt: The stronger the organic acid, the more the reaction moves in the right direction and the lower is the pH of the formed aqueous solution.

pH of the sodium chloride solution [2] | SMILES | pKa [1]
– | O=C(O)c1c(Cl)ccc(Cl)c1C(=O)O [3,6-dichlorophtalic] | 1.46
> 5 | CCCCCCCCCCCC(=O)O [Lauric, lauric acid] | –
